Assay results: USRE42890E1, “Furazanobenzimidazoles” (Basilea Pharmaceutica AG, priority 2003, dated 2011)
Like-named read-outs stand apart in the source and are kept apart here.

Legend:
Jurkat = assay: MTS proliferation assay, Jurkat; assay type: cell-based, human; settings: 72 h incubation, read-out: MTS proliferation assay IC 50 Jurkat
Method: (§1) Cell lines are cultured in RPMI-1640 tissue culture medium containing either 5% or 10% fetal calf serum, 0.05 mM 2-mercaptoethanol, 2 mM glutamine and penicillin/streptomycin 50 μg/ml (complete medium) (Sigma, Buchs, Switzerland). General growth conditions are 37° C. and 7.5% CO2.
(§2) The following human cell lines (either EGFP transfected or not) are being used: HeLa (ATCC: CCL-2), KB (ATCC: CCL-17), MCF7 (ATCC: HTB-22), SK-BR-3 (ATCC: HTB-30), SK-Mel 1 (ATCC: HTB-67), SK-Mel 28 (ATCC: HTB-72), PC-3 (ATCC: CRL-1435), SW 480 (ATCC: CCL-228), NCl-H460 (ATCC: HTB-177), NCl-H1792 (ATCC: CRL-5895), HT1080 (ATCC: CCL-21), Jurkat (ATCC: TIB-152), Ramos (ATCC: CRL-1596), Raji (ATCC: CCL-86), H9 (ATCC: HTB-176), Hut78 (ATCC: TIB-161), K562 (ATCC: CCL 243), HL-60 (ATCC: CCL 240), U-87MG (ATCC: HTB-14), HepG2 (ATCC: HB-8065), U-2 OS (ATCC: HTB-96), Saos-2 (ATCC: HTB-85), U937 (ATCC: CRL 1593), Hs 578T (ATCC: HTB 126), HBL-100 (ATCC: HTB 124), Molt-4 (ATCC: CRL 1582).
(§3) The assay is performed in 96 well tissue culture plates. The cells (range: 1.5*10^3-10^4) are seeded out in 80 μl complete medium 24 h prior to compound treatment. The test compounds are added in 20 μl complete medium containing max 5% DMSO. The final compound concentrations in the assays are 10 μM, 3 μM, 1 μM and 0.3 μM, respectively. The assay plates are incubated for 72 h at culture conditions. The MTS reagent is prepared according to the manufacturer's protocol (Promega G1111). 20 μl MTS reagent are added to each well, the assay plates are quickly spun and incubated for another 3 h at culture conditions. Subsequently, the plates are shortly shaked and absorption measured with a microplate-reader at 492 nm.

HeLa = assay: MTS proliferation assay, HeLa; assay type: cell-based, human; settings: 72 h incubation, read-out: MTS proliferation assay IC 50 HeLa
Method: as §1, §2, §3

MRC5 = assay: MTS proliferation assay, MRC5; assay type: cell-based; settings: MRC5, 72 h incubation, read-out: MTS proliferation assay IC 50 MRC5
Method: as §1, §3

[1] = test system: adherent cells or suspension cells; assay: Hoechst 33342 nuclear staining (fraction of apoptotic nuclei); assay type: cell-based; design: key: 0 relating to no activity; 1 relating to weak activity comprising less than 70% of the cells; score 2 relating to strong activity comprising more than 70% of the cells
Method: as §1
This assay is performed in 96 well tissue culture plates. Appropriate number of cells (adherent cells: 3-5*10^3, suspension cells: 8-10*10^3) are being seeded out in 80 μl complete medium. Adherent cells are incubated for 24 h for proper spreading out before addition of test compounds while suspension cells are immediately treated with test compounds after seeding out. The test compounds are added in 20 μl complete medium containing max 5% DMSO. […] After 24 h or 48 h incubation at culture conditions, 10 μl medium containing Hoechst 33342 dye (Sigma B-2261) at 2-5 μg/ml are added to each well. The assay plates are then further incubated for 30 minutes and subsequently analyzed with a standard inverted fluorescence microscope.
The readout allows the determination of the fraction of apoptotic nuclei as well as other morphological criteria specific for apoptosis as a function of the treatment. The following scores are used: 0 relating to no activity, 1 relating to weak activity comprising less than 70% of the cells and score 2 relating to strong activity comprising more than 70% of the cells.

SMILES	IC50 (Jurkat)	IC50 (HeLa)	IC50 (MRC5)	Hoechst 33342 nuclear staining score ([1]; H460, conc 0.01 μm)	Hoechst 33342 nuclear staining score ([1]; H460, conc 0.1 μm)	Hoechst 33342 nuclear staining score ([1]; H460, conc 1 μm)	Hoechst 33342 nuclear staining score ([1]; HeLa, conc 0.01 μm)	Hoechst 33342 nuclear staining score ([1]; HeLa, conc 0.1 μm)	Hoechst 33342 nuclear staining score ([1]; HeLa, conc 1 μm)	Hoechst 33342 nuclear staining score ([1]; Jily, conc 0.01 μm)	Hoechst 33342 nuclear staining score ([1]; Jily, conc 0.1 μm)	Hoechst 33342 nuclear staining score ([1]; Jurkat, conc 0.01 μm)	Hoechst 33342 nuclear staining score ([1]; Jurkat, conc 0.1 μm)	Hoechst 33342 nuclear staining score ([1]; Jurkat, conc 1 μm)	Hoechst 33342 nuclear staining score ([1]; MRC5, conc 0.01 μm)	Hoechst 33342 nuclear staining score ([1]; MRC5, conc 0.1 μm)	Hoechst 33342 nuclear staining score ([1]; MRC5, conc 1 μm)	Hoechst 33342 nuclear staining score ([1]; PBLs, conc 0.01 μm)	Hoechst 33342 nuclear staining score ([1]; PBLs, conc 0.1 μm)	Hoechst 33342 nuclear staining score ([1]; PBLs, conc 1 μm)	other results
Cc1cc2nc(-c3nonc3N)n(CC(=O)c3ccc(Br)cc3)c2cc1C [Example 109]	100 to 1000 nM	> 1000 nM	> 1000 nM	0	0	0	0	0	0	0	0	0	0	0	0	0	0	0	0	0	Hoechst 33342 nuclear staining score ([1]; Jily, conc 1 μm): 0
CC(=O)Nc1nonc1-c1nc2ccccc2n1CC(=O)c1ccc(Cl)cc1 [Example 5, N-{4-[1-(4-Chlorophenacyl)-1H-benzimidazol-2-yl]-furazan-3-yl}-acetamide]							0	0	2 (score 2 relating to strong activity comprising more than 70% of the cells)			0	0	2 (score 2 relating to strong activity comprising more than 70% of the cells)	0	0	0	0	0	0	IC50 (Jurkat; Homo sapiens): 100 to 1000 nM; IC50 (HeLa; Homo sapiens): 100 to 1000 nM; IC50 (MRC5; Homo sapiens): 100 to 1000 nM
Nc1nonc1-c1nc2ccccc2n1CC(=NO)c1ccccc1Cl (mixture of isomers) [Example 33]	> 1000 nM	> 1000 nM	> 1000 nM	0	0	0	0	0	0	0	0	0	0	0	0	0	0	0	0	0	Hoechst 33342 nuclear staining score ([1]; Jily, conc 1 μm): 0
CON=C(Cn1c(-c2nonc2N)nc2ccccc21)c1ccc(Cl)cc1 (mixture of isomers) [Example 22]	100 to 1000 nM	100 to 1000 nM	100 to 1000 nM	0	0	0	0	0	2 (score 2 relating to strong activity comprising more than 70% of the cells)			0	0	2 (score 2 relating to strong activity comprising more than 70% of the cells)	0	0	0	0	0	0	
